Starred links: 1 amine or outer side, 2 acyl side, 3 side chain; linkers in the order of their positions; H or OH if unused. Positions of bridges follow the written chain, without caps; N, C: chain ends. Non-standard residues stand in square brackets, D forms with d. Residues, ends and D or L forms follow the SMILES beside them. Chains are numbered I, II in the order given. Actinocin(9to1) = Cc1c2oc3c(C)ccc(C(=O)[*:1])c3nc-2c(C(=O)[*:2])c(N)c1=O; NMeV = CN[C@H](C(=O)O)C(C)C; Sar = CNCC(=O)O
Columns and labels:
[1] = in vivo; cited from earlier work
MDA-MB-435 cells = test: MTT assay, Ad.E1A and Taxol; assay type: cell-based; conditions: low neu expressing cells
Protocol: The percentage of cell growth was calculated by defining the absorption of cells not treated with taxol or E1A as 100%. Bars, SD.
FIG. 34. […] The percentage of cell growth was calculated by defining the absorption of cells not treated with taxol or E1A as 100%. Bars, SD.
Taxol was given from 0.1 μM to 100 μM (FIGS. 33B and 33D).

B.E1A1.Hy = test: MTT assay, taxol on rat fibroblasts with various neu and E1A expression; assay type: cell-based; conditions: taxol 0.1–10 μM; compared with B104-1-1, B.neo, B.E1A1.D1
Protocol: FIG. 30B. Effect of taxol (0.01–100 μM) on the cell growth of rat fibroblast with various HER-2/neu and E1A expression. […] Bars, SD.
In order to examine the effects of taxol on cell growth rat fibroblasts with various neu and E1A expression were grown in varying concentrations of taxol 0.01–100 μM. The cell lysates were subsequently run through 8% SDS-PAge and blotted with anti-p185 and anti-E1A antibodies (FIG. 30A). The effects on cell growth were measured using the MTT assay as described earlier.

| SMILES | dose excreted or detected intact in the urine [1] | sensitivity to taxol alone (MDA-MB-435 cells) | inhibition of cell growth (MTT) (B.E1A1.Hy) |
| --- | --- | --- | --- |
| Cc1c2oc3c(C)ccc(C(=O)N[C@@H]4C(=O)N[C@H](C(C)C)C(=O)N5CCC[C@H]5C(=O)N(C)CC(=O)N(C)[C@@H](C(C)C)C(=O)O[C@@H]4C)c3nc-2c(C(=O)N[C@@H]2C(=O)N[C@H](C(C)C)C(=O)N3CCC[C@H]3C(=O)N(C)CC(=O)N(C)[C@@H](C(C)C)C(=O)O[C@@H]2C)c(N)c1=O [Actinomycin D] (I: T[dV]P[Sar][NMeV] / II: T[dV]P[Sar][NMeV]; ester I:1-I:C, II:1-II:C; linker I:N-II:N via Actinocin(9to1)) | 10% | – | – |
| CC[C@]1(O)C[C@@H]2CN(CCc3c([nH]c4ccccc34)[C@@](C(=O)OC)(c3cc4c(cc3OC)N(C)[C@H]3[C@@](O)(C(=O)OC)[C@H](OC(C)=O)[C@]5(CC)C=CCN6CC[C@]43[C@@H]65)C2)C1 [Vinblastine] | Approximately 15% | – | – |
| CC(=O)O[C@H]1C(=O)[C@@]2(C)[C@H]([C@H](OC(=O)c3ccccc3)[C@]3(O)C[C@H](OC(=O)[C@H](O)[C@@H](NC(=O)c4ccccc4)c4ccccc4)C(C)=C1C3(C)C)[C@]1(OC(C)=O)CO[C@@H]1C[C@@H]2O [Taxol] | – | more sensitive to taxol alone | highest inhibition of cell growth |

From US7005424B2, “Nucleic acid encoding an E1A gene product sensitizes HER-2/neu overexpressing cancer cells to chemotherapy” (priority 1996, dated 2006)
